Results reported in ChEMBL document CHEMBL1136164, “Carbonic anhydrase inhibitors: X-ray crystallographic structure of the adduct of human isozyme II with a bis-sulfonamide-two heads are better than one?” (Bioorg Med Chem Lett, 2003).

Tests used:
Oryctolagus cuniculus [1] = species on record: Oryctolagus cuniculus; assay: Prolonged IOP lowering by the compound in glaucomatous rabbit for 5 to 6 hours; format: functional
Oryctolagus cuniculus [2] = species on record: Oryctolagus cuniculus; assay: Prolonged IOP lowering by the compound in glaucomatous rabbit for 3 hours; format: functional

| Structure (SMILES) | IOP lowering (Oryctolagus cuniculus [1]) [mmHg] | IOP lowering (Oryctolagus cuniculus [2]) [mmHg] |
| --- | --- | --- |
| NS(=O)(=O)c1ccc(CCNC(=O)c2ccc(S(N)(=O)=O)cc2)cc1 | 9.5 |  |
| CCN[C@H]1C[C@H](C)S(=O)(=O)c2sc(S(N)(=O)=O)cc21 [DORZOLAMIDE] |  | 3.6 |
